Read-outs that look alike come from different tables or passages of the source.
Legend:
[1] = system: LPS-induced NO production in RAW 264.7 cells; experiment: LPS-induced NO production, Griess reaction assay; assay type: cell-based, mouse; conditions: read-out: IC50, inhibition of LPS-induced NO production
Protocol: (§1) To obtain plant-derived inhibitors of NO as potential lead compounds for treating inflammation disorders, monoterpene constituents 1–6 isolated from the fruits of A. tsao-ko were assayed to determine their inhibitory activities on LPS-induced NO production in murine macrophage RAW 264.7 cells via the Griess reaction assay, as described previously.
(§2) Mouse RAW264.7 macrophage cells (TIB-71) were maintained in Dulbecco’s modified Eagle medium (DMEM) supplemented with 10% fetal bovine serum (FBS), 100 U/mL penicillin, and 0.1 mg/mL streptomycin in a humidified incubator with 5% CO2 at 37 °C.
(§3) The Griess reaction was performed to measure the concentration of nitrite in the medium as an indicator of NO production. RAW264.7 macrophage cells were cultured in a 96-well plate after seeding at a density of 4 × 10^5 cells/well for 24 h in DMEM supplemented with 10% FBS, and stimulated with or without LPS (1 μg/mL, Sigma Aldrich, St. Louis, MO, USA) in the presence or absence of the compounds. After 24 h of incubation at 37 °C, 5% CO2, the cell supernatant was reacted with equal volumes of Griess reagent solutions to determine nitrite production. Absorbance was measured with a microplate reader (Molecular Devices, Sanjose, CA, USA) at 540 nm. Cell viability was confirmed via MTT (Duchefa Biochemie, Haarlem, The Netherlands) assay. The supernatant was removed and medium containing MTT solution (5 mg/mL in phosphate-buffered saline) was added to each well and incubated for 2 h. The medium was removed, and 100 μL of dimethyl sulfoxide (Duchefa Biochemie, Haarlem, The Netherlands) was added to each well to dissolve the purple formazan product to obtain a colored solution. Absorbance was measured at 540 nm with a microplate reader.

[2] = system: RAW264.7 macrophage cells; experiment: MTT assay for cell viability; conditions: RAW 264.7 cells, LPS-stimulated
Protocol: as §1, §2, §3

iNOS protein expression = experiment: Western blot analysis of iNOS protein expression in LPS-stimulated RAW264.7 cells; assay type: cell-based, mouse; conditions: pretreatment 10, 50, 100 μM for 1 h, then LPS 1 μg/mL 24 h
Source text: L-Arginine-derived NO is an intracellular signaling molecule formed in mammalian cells by different three isoforms of nitric oxide synthase (NOS). The isozymes are referred to as neuronal NOS (nNOS or NOS I), inducible NOS (iNOS or NOS II), and an endothelial NOS (eNOS or NOS III). Excessive generation of NO by iNOS is seen in inflammatory diseases such as autoimmune and chronic inflammatory disorders. To examine the mechanism of NO inhibition by active compound 4, we evaluated iNOS protein expression via western blotting.
Figure 2 Effects of (1R,4S,6S)-1,6-dihydroxy-2-menthene (compound 4) on iNOS protein and pro-inflammatory cytokine mRNA expression in LPS-stimulated RAW264.7 cells. […] (C,D) Levels of iNOS, IL-1β, and IL-6 mRNAs were determined via RT-PCR. RT-PCR data results were expressed as the fold of changes of the target gene (iNOS, IL-1β, and IL-6) and normalized to the GAPDH. […]
RAW264.7 cells, plated in 6-well plates (1 × 10^6 cells/well), were treated with compound 4 (10, 50, and 100 μM). […] Protein expression was analyzed via immunoblotting with antibodies against anti-iNOS (cat. no. ab3523; dilution, 1:500, Abcam, Cambridge, UK) and β-actin (cat. no. 5125; dilution, 1:1000, Cell Signaling Technology, Danvers, MA, USA). […] The bands of interest were quantified using the imageJ software.

iNOS mRNA = experiment: RT-PCR of iNOS mRNA in LPS-stimulated RAW264.7 cells; assay type: cell-based, mouse; conditions: 10, 50, 100 μM for 1 h, then LPS 1 μg/mL 24 h, normalized to GAPDH
Protocol: (§4) Figure 2 Effects of (1R,4S,6S)-1,6-dihydroxy-2-menthene (compound 4) on iNOS protein and pro-inflammatory cytokine mRNA expression in LPS-stimulated RAW264.7 cells. RAW264.7 cells were pretreated with different concentrations (10, 50, 100 μM) of compound 4 for 1 h, and then stimulated with 1 µg/mL LPS for 24 h. (A,B) Western blot analysis of iNOS expression in cells treated with compound 4 (10, 50, 100 μM). β-Actin was used as a loading control. (C,D) Levels of iNOS, IL-1β, and IL-6 mRNAs were determined via RT-PCR. RT-PCR data results were expressed as the fold of changes of the target gene (iNOS, IL-1β, and IL-6) and normalized to the GAPDH. Values represent the mean ± SD of three independent experiments. […]
(§5) Next, we confirmed the effect of compound 4 on the expression of inflammatory factors, i.e., iNOS, IL-1β, and IL-6 in LPS-stimulated RAW264.7 cells. […] We measured the levels of the relevant mRNAs via reverse transcription polymerase chain reaction (RT-PCR). […]
(§6) RAW264.7 cells, plated in 6-well plates (1 × 10^6 cells/well), were treated with compound 4 (10, 50, and 100 μM) for 1 h prior to LPS, and stimulated with 1 μg/mL LPS or remained unstimulated for 24 h. […] The bands of interest were quantified using the ChemiDoc XRS system and Quantity One software (Bio-Rad Laboratories, Hercules, CA, USA).

IL-1β mRNA = experiment: RT-PCR of IL-1β mRNA in LPS-stimulated RAW264.7 cells; assay type: cell-based, mouse; conditions: 10, 50, 100 μM for 1 h, then LPS 1 μg/mL 24 h, normalized to GAPDH
Protocol: as §4, §5, §6

IL-6 mRNA = experiment: RT-PCR of IL-6 mRNA in LPS-stimulated RAW264.7 cells; assay type: cell-based, mouse; conditions: 10, 50, 100 μM for 1 h, then LPS 1 μg/mL 24 h, normalized to GAPDH
Protocol: as §4, §5, §6

[3] = Mus musculus, RAW264.7, RAW 264.7 cells, LPS 1 μg/mL, 24 h, Griess reagent

Row | Compound | MTT (cell viability) [2] | IC50 [1, 3] | other results
1 | O=CC1=CC[C@@H](O)[C@H]2CCC[C@@H]12 [Compound 1, tsaokoin] | >100 µM |  | IC50 ([1]; Mus musculus, RAW264.7, 24 h): > 100 µM
2 | CC1=C[C@@H](O)[C@H](C(C)C)C[C@H]1O [Compound 2, (3S,4S,6R)-3,6-dihydroxy-1-menthene] | >100 µM | > 100 µM | 
3 | C=C(C)[C@H]1CC[C@@](C)(O)C[C@@H]1O [Compound 3, (1R,3S,4R)-3-hydroxy isopulegol] | >100 µM | > 100 µM | 
4 | CC(C)[C@H]1C=C[C@@](C)(O)[C@@H](O)C1 [Compound 4, (1R,4S,6S)-1,6-dihydroxy-2-menthene] | >100 µM | 82.5 µM | iNOS protein expression (iNOS protein expression): significantly and dose-dependently inhibited iNOS expression; iNOS mRNA expression (iNOS mRNA): decreased the iNOS expression at the mRNA level, in a dose-dependent manner; IL-1β mRNA level (IL-1β mRNA): reduced; IL-6 mRNA level (IL-6 mRNA): reduced
5 | CC(=CCO)CCCC(C)CO (stereo not drawn) [Compound 5, 3,7-dimethyl-2-octene-1,8-diol] | >100 µM | > 100 µM | 
6 | C/C(C=O)=C\CC/C(C)=C/CO [Compound 6, 8-oxogeraniol] | >100 µM | > 100 µM | 
7 | CC(=O)O.CNC(=N)NCCC[C@H](N)C(=O)O [NG-methyl-L-arginine acetate, reference compound] | >100 µM |  | IC50 ([1]; RAW 264.7 cells, LPS 1 μg/mL, 24 h, Griess reagent): 34.2 µM
